{
  "source": "patent US20200000772A1",
  "about": "“CENICRIVIROC COMBINATION THERAPY FOR THE TREATMENT OF FIBROSIS” (Tobira Therapeutics, Inc., priority 2014, published 2020)",
  "key": {"[1]": {"system": "STAM™ mouse model of Non-alcoholic Steatohepatitis", "assay": "STAM mouse model of NASH, Part 1: anti-NASH/fibrosis effects at week 9", "assay_type": "in vivo, mice", "conditions": "for Body weight / Liver-to-body weight ratio / Collagen Type 1 mRNA expression level (liver, quantitative RT-PCR) / MCP-1 mRNA expression level (liver, quantitative RT-PCR) / TIMP-1 mRNA expression level (liver, quantitative RT-PCR): mean ± SD; for Collagen Type 1 mRNA expression level (liver, quantitative RT-PCR) / MCP-1 mRNA expression level (liver, quantitative RT-PCR) / TIMP-1 mRNA expression level (liver, quantitative RT-PCR): Vehicle 1.00", "protocol": "NASH was induced in male mice by a single injection of 200 μg streptozotocin 2 days after birth (causing impaired glucose control), followed by a high fat diet from 4 weeks of age. […] Animals were sacrificed at 9 weeks of age, and biochemical, gene expression, and histologic evaluations of the liver were conducted. […] Group 2-Cenicriviroc 20 mg/kg (CVC-low): […] [table]"}, "[2]": {"system": "thioacetamide (TAA)-induced hepatic fibrosis", "assay": "Rat model of thioacetamide-induced liver fibrosis and cirrhosis", "assay_type": "in vivo, Sprague-Dawley rats", "conditions": "first 8 weeks", "protocol": "Fibrosis was induced in male Sprague-Dawley rats by intraperitoneal administration of TAA 150 mg/kg 3 times/week for 8 weeks. […] Biochemical, gene expression and histologic evaluations of the liver were conducted."}, "[3]": {"system": "renal fibrosis induced by unilateral ureter occlusion (UUO)", "assay": "Mouse UUO model of renal fibrosis", "assay_type": "in vivo, CD-1 mice", "protocol": "Test animals were allocated to weight-matched treatment groups on the day prior to the surgical procedure (Day −1). Male CD-1 mice (N=51; age, 7-8 weeks) underwent either sham surgery or total ligation of the right ureter, i.e. UUO, via aseptic laparotomy (FIG. 5). […] Another group received the anti-transforming growth factor TGF-β1 antibody, compound 1D11 (positive control) at 3 mg/kg/day from Days −1 to 4, injected intraperitoneally once daily, and vehicle control from Days 0 to 5. […] On Day 5, animals were anaesthetised, blood and tissues were collected prior to sacrifice.\nStudy endpoints included: a) body and kidney weights; b) fibrosis in obstructed kidney evaluated via histological quantitative image analysis of picrosirius red staining (ten images/depth/kidney obtained and assessed in a blinded fashion using light microscopy [at 200×] to enable sampling of 60-70% of the renal cortical area) and quantified by a composite Collagen Volume Fraction (CVF [% total area imaged]) score expressed as the average positive stain across three anatomically distinct ([…] apart) tissue sections, or depths, from the obstructed kidney; c) hydroxyproline content of frozen renal cortical tissue biopsies as assessed by biochemical analyses; d) mRNA expression of profibrotic and inflammatory biomarkers (including MCP-1, Collagen 1a1, Collagen 3a1, TGF-β1, Fibronectin-1, α-smooth muscle actin (α-SMA) and connective tissue growth factor-1 (CTGF-1); assessed via Luminex® (Life Technologies™, Carlsbad, Calif., USA) assay with relative expression normalised to HPRT (hypoxanthine phosphoribosyltransferase).\nData are expressed as mean±standard error of mean (SEM). Statistical analyses were performed using GraphPad Prism® (GraphPad Software, Inc., San Diego, Calif., USA). Treatment differences between sham-surgery+vehiclecontrol and UUO+vehicle-control groups, and between UUO+vehicle-control and UUO+compound-1D1 (positive control) groups, were analysed by unpaired t-Test. Treatment differences between UUO+vehicle-control and CVC-dose groups were analysed by one-way ANOVA (analysis of variance) with Dunnett's test (post-hoc)."}, "[4]": {"assay": "Mouse toxicity studies without surgical procedures", "assay_type": "in vivo", "conditions": "CVC doses up to 2000 mg/kg/day"}, "HIV-1 infected subjects": {"system": "HIV-1 infected subjects", "assay": "Study 202 efficacy and tolerability", "assay_type": "in vivo, human", "conditions": "CVC 100 mg and 200 mg for up to 48 weeks, 115 subjects"}, "[5]": {"conditions": "CVC-high 100 mg/kg/day, week 9, listed as Cenicriviroc"}, "[6]": {"conditions": "CVC-high 100 mg/kg/day, week 9, n = 6"}, "[7]": {"conditions": "CVC-low 20 mg/kg/day, week 9, listed as Cenicriviroc"}, "[8]": {"conditions": "CVC-low 20 mg/kg/day, week 9, n = 6"}, "[9]": {"conditions": "CVC 7 and 20 mg/kg/day, compound 1D11, vs UUO+vehicle-control"}},
  "note": "“Also recorded” adds a separate entry of the source.",
  "data": [
    {"smiles": "CCCCOCCOc1ccc(-c2ccc3c(c2)/C=C(/C(=O)Nc2ccc([S@@+]([O-])Cc4cncn4CCC)cc2)CCCN3CC(C)C)cc1", "note": "[CVC, (S)-8-[4-(2-Butoxyethoxy)phenyl]-1-isobutyl-N-(4-{[(1-propyl-1H-imidazol-5-yl)methyl]sulfinyl}phenyl)-1,2,3,4-tetrahydro-1-benzazocine-5-carboxamide]", "values": [
      {"measurement": "collagen type 1 mRNA in whole liver lysates, decrease (real-time RT-PCR)", "setting": "[1]; CVC treatment 20 and 100 mg/kg/day, 9 weeks of age", "value": "27-37%"},
      {"measurement": "Body weight", "setting": "[1]; CVC-high 100 mg/kg/day, week 9", "value": "18.7 ± 0.9", "unit": "g"},
      {"measurement": "Liver-to-body weight ratio", "setting": "[1]; CVC-high 100 mg/kg/day, week 9", "value": "7.0±0.8", "unit": "%"},
      {"measurement": "Collagen Type 1 mRNA expression level (liver, quantitative RT-PCR)", "setting": "[1]; CVC-high 100 mg/kg/day, week 9", "value": "0.73±0.04"},
      {"measurement": "MCP-1 mRNA expression level (liver, quantitative RT-PCR)", "setting": "[1]; CVC-high 100 mg/kg/day, week 9", "value": "1.00±0.53"},
      {"measurement": "TIMP-1 mRNA expression level (liver, quantitative RT-PCR)", "setting": "[1]; CVC-high 100 mg/kg/day, week 9", "value": "0.80±0.20"},
      {"measurement": "Collagen Type 1 mRNA expression level (liver, quantitative RT-PCR)", "setting": "[1]; [5]", "value": "0.73 ± 0.04"},
      {"measurement": "MCP-1 mRNA expression level (liver, quantitative RT-PCR)", "setting": "[1]; [5]", "value": "1.00 ± 0.53"},
      {"measurement": "TIMP-1 mRNA expression level (liver, quantitative RT-PCR)", "setting": "[1]; [5]", "value": "0.80 ± 0.20"},
      {"measurement": "Body weight", "setting": "[1]; [5]", "value": "18.7 ± 0.9", "unit": "g"},
      {"measurement": "Liver-to-body weight ratio", "setting": "[1]; [5]", "value": "7.0 ± 0.8", "unit": "%"},
      {"measurement": "Hepatocyte ballooning score 0 (None), number of mice", "setting": "[1]; [6]", "value": 1},
      {"measurement": "Hepatocyte ballooning score 1 (Few balloon cells), number of mice", "setting": "[1]; [6]", "value": 2},
      {"measurement": "Hepatocyte ballooning score 2 (Many cells/prominent ballooning), number of mice", "setting": "[1]; [6]", "value": 3},
      {"measurement": "Lobular inflammation score 1 (<2 foci/200x), number of mice", "setting": "[1]; [6]", "value": 3},
      {"measurement": "Lobular inflammation score 2 (2-4 foci/200x), number of mice", "setting": "[1]; [6]", "value": 3},
      {"measurement": "Steatosis score 0 (<5%), number of mice", "setting": "[1]; [6]", "value": 1},
      {"measurement": "Steatosis score 1 (5-33%), number of mice", "setting": "[1]; [6]", "value": 5},
      {"measurement": "Body weight", "setting": "[1]; CVC-low 20 mg/kg/day, week 9", "value": "19.5 ± 2.0", "unit": "g"},
      {"measurement": "Liver-to-body weight ratio", "setting": "[1]; CVC-low 20 mg/kg/day, week 9", "value": "6.9±1.0", "unit": "%"},
      {"measurement": "Collagen Type 1 mRNA expression level (liver, quantitative RT-PCR)", "setting": "[1]; CVC-low 20 mg/kg/day, week 9", "value": "0.63±0.10"},
      {"measurement": "TIMP-1 mRNA expression level (liver, quantitative RT-PCR)", "setting": "[1]; CVC-low 20 mg/kg/day, week 9", "value": "0.75±0.32"},
      {"measurement": "Collagen Type 1 mRNA expression level (liver, quantitative RT-PCR)", "setting": "[1]; [7]", "value": "0.63 ± 0.10"},
      {"measurement": "TIMP-1 mRNA expression level (liver, quantitative RT-PCR)", "setting": "[1]; [7]", "value": "0.75 ± 0.32"},
      {"measurement": "Body weight", "setting": "[1]; [7]", "value": "19.5 ± 2.0", "unit": "g"},
      {"measurement": "Liver-to-body weight ratio", "setting": "[1]; [7]", "value": "6.9 ± 1.0", "unit": "%"},
      {"measurement": "Hepatocyte ballooning score 1 (Few balloon cells), number of mice", "setting": "[1]; [8]", "value": 3},
      {"measurement": "Hepatocyte ballooning score 2 (Many cells/prominent ballooning), number of mice", "setting": "[1]; [8]", "value": 3},
      {"measurement": "Lobular inflammation score 1 (<2 foci/200x), number of mice", "setting": "[1]; [8]", "value": 3},
      {"measurement": "Lobular inflammation score 2 (2-4 foci/200x), number of mice", "setting": "[1]; [8]", "value": 3},
      {"measurement": "Steatosis score 1 (5-33%), number of mice", "setting": "[1]; [8]", "value": 6},
      {"measurement": "general condition throughout the treatment period", "setting": "[1]; CVC-low and CVC-high, until week 9", "value": "None of the animals in the present study showed deterioration in general condition"},
      {"measurement": "reduction of fibrosis by collagen morphometry", "setting": "[2]; Group 1a: CVC 30 mg/kg/day concurrently with TAA", "value": 49, "unit": "%"},
      {"measurement": "reduction of fibrosis by collagen morphometry", "setting": "[2]; Group 1b: CVC 100 mg/kg/day concurrently with TAA", "value": 38, "unit": "%"},
      {"measurement": "effect on body weight", "setting": "[3]; CVC 7 mg/kg/day oral, compound 1D11 3 mg/kg/day i.p., Day 5", "value": "no effect"},
      {"measurement": "decrease in body weight relative to UUO+vehicle-control", "setting": "[3]; CVC 20 mg/kg/day, Day 5", "value": 5, "unit": "%"},
      {"measurement": "tolerability after UUO surgery", "setting": "[3]; CVC 100 mg/kg/day group (N=9)", "value": "terminated early due to moribundity"},
      {"measurement": "effect on UUO-induced increases in obstructed kidney hydroxyproline content", "setting": "[3]; CVC 7 and 20 mg/kg/day", "value": "Neither dose of CVC tested affected"},
      {"measurement": "effects on obstructed or contralateral kidney weight or kidney weight index", "setting": "[3]; CVC 7 and 20 mg/kg/day, compound 1D11 3 mg/kg/day, vs UUO+vehicle-control", "value": "No significant treatment effects"},
      {"measurement": "Collagen 1a1, Collagen 3a1, TGF-β1 and Fibronectin-1 mRNA expression in obstructed kidney", "setting": "[3]; [9]", "value": "attenuated UUO-induced increases"},
      {"measurement": "obstructed kidney cortical MCP-1, α-SMA and CTGF-1 mRNA expression", "setting": "[3]; [9]", "value": "did not have significant effects"},
      {"measurement": "tolerability", "setting": "[4]", "value": "well tolerated"},
      {"measurement": "tolerability in HIV-1 infected subjects", "setting": "HIV-1 infected subjects", "value": "generally well tolerated; also recorded: effective and well tolerated"}
    ]}
  ]
}
